Changes are numbered by the printed parent chain. Like-named read-outs stand apart in the source and are kept apart here. Values belong to the molecule of their own block, whether it stands above or below them.
How the values were obtained:
[1] = target: T1, CYP2A7-WT (Homo sapiens, UniProt P20853, D169E/H274R/R311C/V479G); experiment: in vitro
T1 sequence (P20853 1-494 D169E/H274R/R311C/V479G): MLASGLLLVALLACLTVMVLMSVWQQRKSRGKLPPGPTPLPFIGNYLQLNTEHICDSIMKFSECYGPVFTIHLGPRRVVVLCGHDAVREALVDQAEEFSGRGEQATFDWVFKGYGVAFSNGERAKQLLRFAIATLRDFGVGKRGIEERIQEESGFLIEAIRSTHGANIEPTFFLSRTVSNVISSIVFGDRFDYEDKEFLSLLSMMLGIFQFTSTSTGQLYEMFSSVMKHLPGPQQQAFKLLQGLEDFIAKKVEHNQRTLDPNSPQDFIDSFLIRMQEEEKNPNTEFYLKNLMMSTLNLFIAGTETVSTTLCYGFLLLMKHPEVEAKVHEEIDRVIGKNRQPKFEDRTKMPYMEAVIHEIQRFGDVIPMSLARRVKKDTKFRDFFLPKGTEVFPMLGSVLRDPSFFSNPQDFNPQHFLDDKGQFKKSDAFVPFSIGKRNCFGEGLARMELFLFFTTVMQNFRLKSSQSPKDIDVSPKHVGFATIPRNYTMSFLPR

[2] = target: T2, CYP2A7*1 (Homo sapiens, UniProt P20853); experiment: in vitro
T2 sequence (P20853 1-494): T1 sequence (P20853 1-494 D169E/H274R/R311C/V479G) with E169D, R274H, C311R, G479V

[3] = target: T3, CYP2A6*1 (Homo sapiens, UniProt P11509); experiment: in vitro
T3 sequence (P11509 1-494): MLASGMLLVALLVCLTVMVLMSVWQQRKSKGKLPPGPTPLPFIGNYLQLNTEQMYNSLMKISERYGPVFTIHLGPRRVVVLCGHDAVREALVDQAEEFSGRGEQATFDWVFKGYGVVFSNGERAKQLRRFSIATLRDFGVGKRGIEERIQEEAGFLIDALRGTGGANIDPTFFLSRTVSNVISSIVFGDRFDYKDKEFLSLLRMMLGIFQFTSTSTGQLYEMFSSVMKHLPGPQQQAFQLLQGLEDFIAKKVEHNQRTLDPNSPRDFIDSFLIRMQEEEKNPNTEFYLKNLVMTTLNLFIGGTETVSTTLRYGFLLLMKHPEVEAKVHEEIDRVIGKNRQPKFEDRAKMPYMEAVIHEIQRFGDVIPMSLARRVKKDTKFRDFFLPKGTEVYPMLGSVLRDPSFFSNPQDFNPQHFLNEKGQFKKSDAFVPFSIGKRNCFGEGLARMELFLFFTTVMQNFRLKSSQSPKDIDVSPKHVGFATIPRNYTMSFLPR

[4] = target: T1, CYP2A7-WT; experiment: Fluorescence detection of coumarin 7-hydroxylation and deethylation of 7-ethoxycoumarin; type: biochemical; parameters: expressed in transfected cells; host or cells: Schizosaccharomyces pombe strain AA01 (pREP1-CYP2A7-WT in CAD62), permeabilized cells (enzyme bags); details: by CYP2A7-WT; fluorometric
Description: (§1) The fluorescence activity of CYP enzymes was measured as described with slight modifications. The solution was shaken at 37 °C for 3 h in the dark at a 50 µL final reaction volume. Afterwards, reactions were stopped by adding 350 µL ethyl acetate. The reaction tubes were vortexed for 5 min before centrifugation at 16,000× g for 8 min. Finally, 200 µL of the upper phase was extracted three times with 350 µL of ethyl acetate each. In the last step, the reaction tubes were air-dried in the dark. For reconstituting the pellet we added 50 µL of methanol, which was later followed by the addition of 250 µL of 0.01 M NaOH. The amounts of de-ethylated products were quantified by using standard solutions of 7-hydroxycoumarin and 7-ethoxycoumarin. The concentrations of 7-hydroxycoumarin were determined fluorometrically with 50 µL volume using Grenier microlon flat-bottom 96-well black plates. The energies for excitation and emission were set at 368 and at 530 nm, respectively. All readings were taken in triplicate.

[5] = target: T2, CYP2A7*1; experiment: as above; type: biochemical; parameters: expressed in transfected cells; host or cells: Schizosaccharomyces pombe strain RAJ127 (pREP1-CYP2A7*1 in CAD62), permeabilized cells (enzyme bags); details: by CYP2A7*1; fluorometric
Description: as §1

[6] = target: T3, CYP2A6*1; experiment: as above; type: biochemical; parameters: expressed in transfected cells; host or cells: Schizosaccharomyces pombe strain RAJ122 (pREP1-CYP2A6*1 in CAD62), permeabilized cells (enzyme bags); details: by CYP2A6*1; fluorometric
Description: as §1

[7] = target: T1, CYP2A7-WT; experiment: Conversion of luminogenic (proluciferin) substrates by permeabilized fission yeast cells (enzyme bags); type: biochemical; parameters: expressed in transfected cells; host or cells: Schizosaccharomyces pombe strain AA01 (pREP1-CYP2A7-WT in CAD62), permeabilized cells (enzyme bags); details: for Luminescence (RLU): enzyme CYP2A7-WT coexpressed with CPR, compound as substrate, 3 h, 37 °C, mean ± SD
Description: (§2) Briefly, a concentrated CYP reaction mixture (containing a fourfold concentrated substrate and potassium phosphate buffer) was added to the cell pellets after the permeabilization and washing process. For inhibition assays, the CYP reaction mixtures with the inhibitors at a final concentration of 10 µM were pre-incubated at 37 °C for 10 min. CYP reactions were commenced by adding the twofold concentrated NADPH regeneration system. Samples were incubated for 3 h at 37 °C and 1000 rpm. After centrifugation at 16,000× g for 1 min, the supernatants were transferred to the white microtiter plates and an equal amount of reconstituted luciferin detection reagent was added to each well. Plates were then incubated at room temperature for 20 min and the luminescence was recorded on a Magellan infinite 200Pro microplate reader (Tecan; Männedorf, Switzerland). For the proluciferin substrates’ screening, the specific reaction conditions and substrate concentrations were as given in the instructions of the manufacturer (Promega). […] For inhibitor assays, ketoconazole, 1-benzylimidazole, and letrozole were added to a final concentration of 10 µM. All measurements were done at least three times in triplicates.

[8] = target: T2, CYP2A7*1; experiment: as above; type: biochemical; parameters: expressed in transfected cells; host or cells: Schizosaccharomyces pombe strain RAJ127 (pREP1-CYP2A7*1 in CAD62), permeabilized cells (enzyme bags); details: for Conversion of luminogenic substrate (in words): by CYP2A7*1, vs. negative control (CPR only); for Luminescence (RLU): enzyme CYP2A7*1 coexpressed with CPR, compound as substrate, 3 h, 37 °C, mean ± SD
Description: as §2

[9] = target: T3, CYP2A6*1; details: by CYP2A6*1, vs. negative control (CPR only)
Description: This was performed as described previously with slight modifications. Briefly, fission yeast cells were cultured on EMM plates with 5 µM thiamine for 3 days at 30 °C. A single yeast colony was then transferred to a 10 mL liquid culture of EMM without thiamine and cultured at 30 °C and 230 rpm for 36 h. As the recombinant expression of the human enzymes is controlled by the strong endogenous nmt1 promoter, all subsequent cultures were cultured in the absence of thiamine to keep the promoter in an active state. For each activity assay, 5 × 10^7 cells (stationary growth phase) were transferred to 1.5 mL Eppendorf tubes (Axygen; Silicon Valley, USA), pelleted, and incubated in 1 mL of 0.3% Triton-X100 in Tris-KCl buffer (200 mM KCl, 100 mM Tris-HCl pH 7.8) at room temperature for 60 min at 150 rpm for permeabilization. After three washes with 1 mL NH4HCO3 buffer (50 mM, pH 7.8), cells were resuspended in phosphate buffer (pH 7.4) and then the substrate and the NADPH regeneration system were added to a total volume of 50 µL. The samples were incubated at 37 °C and 1000 rpm for 3 h. […]
This was performed as described previously with slight modifications. […] Plates were then incubated at room temperature for 20 min and the luminescence was recorded on a Magellan infinite 200Pro microplate reader (Tecan; Männedorf, Switzerland). […]

[10] = target: T2, CYP2A7*1; details: by CYP2A7*1; nicotine 250 µM
Description: (§3) This was performed as described previously with slight modifications. Briefly, fission yeast cells were cultured on EMM plates with 5 µM thiamine for 3 days at 30 °C. A single yeast colony was then transferred to a 10 mL liquid culture of EMM without thiamine and cultured at 30 °C and 230 rpm for 36 h. As the recombinant expression of the human enzymes is controlled by the strong endogenous nmt1 promoter, all subsequent cultures were cultured in the absence of thiamine to keep the promoter in an active state. For each activity assay, 5 × 10^7 cells (stationary growth phase) were transferred to 1.5 mL Eppendorf tubes (Axygen; Silicon Valley, USA), pelleted, and incubated in 1 mL of 0.3% Triton-X100 in Tris-KCl buffer (200 mM KCl, 100 mM Tris-HCl pH 7.8) at room temperature for 60 min at 150 rpm for permeabilization. After three washes with 1 mL NH4HCO3 buffer (50 mM, pH 7.8), cells were resuspended in phosphate buffer (pH 7.4) and then the substrate and the NADPH regeneration system were added to a total volume of 50 µL. The samples were incubated at 37 °C and 1000 rpm for 3 h. For LC-MS analysis, the reaction mixture was extracted with an equal amount of ethyl acetate by centrifugation, and the supernatants were stored at −20 °C until use.
(§4) An Agilent HPLC/microTOF-Q II instrument equipped with a LiChrospher 100 RP-18 column was used to carry out all analytical procedures. The mobile phase that we used was a mixture of water with 0.05% formic acid as phase A and 100% acetonitrile as B, run at a constant flow of 0.3 mL/min for 45 min. The gradient used was 0–20 min (80% A: 20% B to 80% B), 20–30 min (100% B), 30–35 min again (100% B), and 35–45 min (80% A: 20% B). We used positive electrospray ionization mode at a capillary voltage of 4.5 kV for mass spectrometry.

[11] = target: T1, CYP2A7-WT; details: by CYP2A7-WT; nicotine 250 µM
Description: as §3, §4

[12] = target: T3, CYP2A6*1; details: by CYP2A6*1; nicotine 250 µM
Description: as §3, §4

[13] = pH 7.4, probe Luciferin-H (100 µM)

Compound: c1ccc(Cn2ccnc2)cc1 [1-Benzyl-imidazole]
inhibition at 3 h, 10 µM ([1]; pH 7.4): 80 ± 21%
inhibition at 3 h, 10 µM ([2]; pH 7.4): 55 ± 11%
inhibition at 3 h, 10 µM [3]: 64 ± 12%

Compound: N#Cc1ccc(C(c2ccc(C#N)cc2)n2cncn2)cc1 [Letrozole]
inhibition at 3 h, 10 µM [1, 13]: 72 ± 13%
inhibition at 3 h, 10 µM [2, 13]: 78 ± 7%
inhibition at 3 h, 10 µM ([3]; probe Luciferin-H (100 µM)): 64 ± 10%

Compound: COc1ccc2nc(C3=NC(C(=O)O)CS3)sc2c1 (centres unmarked) [Luciferin-ME]
Conversion of luminogenic substrate (in words) ([7]; by CYP2A7-WT, vs. negative control (CPR only)): also acted on both substrates
Luminescence (RLU) [7]: 439 ± 113 RLU
Conversion of luminogenic substrate (in words) [9]: can both metabolize
Conversion of luminogenic substrate (in words) [8]: can both metabolize
Luminescence (RLU) [8]: 276 ± 63 RLU

Compound: CN1CCC[C@H]1c1cccnc1 [nicotine]
Metabolization of nicotine to the nicotine iminium ion [10]: no nicotine metabolite was found
Metabolization of nicotine to the nicotine iminium ion [11]: no nicotine metabolite was found
Metabolization of nicotine to the nicotine iminium ion [12]: confirmed the metabolization

The remaining lines, values ahead:

Conversion to 7-hydroxycoumarin [4]: no reaction was observed
Conversion to 7-hydroxycoumarin [5]: no reaction was observed
Conversion to 7-hydroxycoumarin [6]: confirmed the activity
Compound: CCOc1ccc2ccc(=O)oc2c1 [7-ethoxycoumarin]

Conversion to 7-hydroxycoumarin [4]: no reaction was observed
Conversion to 7-hydroxycoumarin [5]: no reaction was observed
Conversion to 7-hydroxycoumarin [6]: confirmed the activity
Compound: O=c1ccc2ccccc2o1 [Coumarin, coumarin]

inhibition at 3 h, 10 µM [1, 13]: 58 ± 17%
inhibition at 3 h, 10 µM [2, 13]: 74 ± 4%
inhibition at 3 h, 10 µM ([3]; probe Luciferin-H (100 µM)): 70 ± 11%
Compound: CC(=O)N1CCN(c2ccc(OCC3COC(Cn4ccnc4)(c4ccc(Cl)cc4Cl)O3)cc2)CC1 (centres unmarked) [Ketoconazole]

Luminescence (RLU) [7]: 6312 ± 699 RLU
Conversion of luminogenic substrate (in words) [8]: are CYP2A7*1 substrates
Luminescence (RLU) [8]: 16,216 ± 369 RLU
Compound: O=C(O)[C@H]1CSC(c2nc3ccc(OCc4ccccc4)cc3s2)=N1 [Luciferin-BE]
